Data on 68 molecules can be found in US20150246938A1, “NOVEL OLEFIN DERIVATIVE” (SHIONOGI & CO., LTD., priority 2011, published 2015).

T1 sequence (O00763 27-2458): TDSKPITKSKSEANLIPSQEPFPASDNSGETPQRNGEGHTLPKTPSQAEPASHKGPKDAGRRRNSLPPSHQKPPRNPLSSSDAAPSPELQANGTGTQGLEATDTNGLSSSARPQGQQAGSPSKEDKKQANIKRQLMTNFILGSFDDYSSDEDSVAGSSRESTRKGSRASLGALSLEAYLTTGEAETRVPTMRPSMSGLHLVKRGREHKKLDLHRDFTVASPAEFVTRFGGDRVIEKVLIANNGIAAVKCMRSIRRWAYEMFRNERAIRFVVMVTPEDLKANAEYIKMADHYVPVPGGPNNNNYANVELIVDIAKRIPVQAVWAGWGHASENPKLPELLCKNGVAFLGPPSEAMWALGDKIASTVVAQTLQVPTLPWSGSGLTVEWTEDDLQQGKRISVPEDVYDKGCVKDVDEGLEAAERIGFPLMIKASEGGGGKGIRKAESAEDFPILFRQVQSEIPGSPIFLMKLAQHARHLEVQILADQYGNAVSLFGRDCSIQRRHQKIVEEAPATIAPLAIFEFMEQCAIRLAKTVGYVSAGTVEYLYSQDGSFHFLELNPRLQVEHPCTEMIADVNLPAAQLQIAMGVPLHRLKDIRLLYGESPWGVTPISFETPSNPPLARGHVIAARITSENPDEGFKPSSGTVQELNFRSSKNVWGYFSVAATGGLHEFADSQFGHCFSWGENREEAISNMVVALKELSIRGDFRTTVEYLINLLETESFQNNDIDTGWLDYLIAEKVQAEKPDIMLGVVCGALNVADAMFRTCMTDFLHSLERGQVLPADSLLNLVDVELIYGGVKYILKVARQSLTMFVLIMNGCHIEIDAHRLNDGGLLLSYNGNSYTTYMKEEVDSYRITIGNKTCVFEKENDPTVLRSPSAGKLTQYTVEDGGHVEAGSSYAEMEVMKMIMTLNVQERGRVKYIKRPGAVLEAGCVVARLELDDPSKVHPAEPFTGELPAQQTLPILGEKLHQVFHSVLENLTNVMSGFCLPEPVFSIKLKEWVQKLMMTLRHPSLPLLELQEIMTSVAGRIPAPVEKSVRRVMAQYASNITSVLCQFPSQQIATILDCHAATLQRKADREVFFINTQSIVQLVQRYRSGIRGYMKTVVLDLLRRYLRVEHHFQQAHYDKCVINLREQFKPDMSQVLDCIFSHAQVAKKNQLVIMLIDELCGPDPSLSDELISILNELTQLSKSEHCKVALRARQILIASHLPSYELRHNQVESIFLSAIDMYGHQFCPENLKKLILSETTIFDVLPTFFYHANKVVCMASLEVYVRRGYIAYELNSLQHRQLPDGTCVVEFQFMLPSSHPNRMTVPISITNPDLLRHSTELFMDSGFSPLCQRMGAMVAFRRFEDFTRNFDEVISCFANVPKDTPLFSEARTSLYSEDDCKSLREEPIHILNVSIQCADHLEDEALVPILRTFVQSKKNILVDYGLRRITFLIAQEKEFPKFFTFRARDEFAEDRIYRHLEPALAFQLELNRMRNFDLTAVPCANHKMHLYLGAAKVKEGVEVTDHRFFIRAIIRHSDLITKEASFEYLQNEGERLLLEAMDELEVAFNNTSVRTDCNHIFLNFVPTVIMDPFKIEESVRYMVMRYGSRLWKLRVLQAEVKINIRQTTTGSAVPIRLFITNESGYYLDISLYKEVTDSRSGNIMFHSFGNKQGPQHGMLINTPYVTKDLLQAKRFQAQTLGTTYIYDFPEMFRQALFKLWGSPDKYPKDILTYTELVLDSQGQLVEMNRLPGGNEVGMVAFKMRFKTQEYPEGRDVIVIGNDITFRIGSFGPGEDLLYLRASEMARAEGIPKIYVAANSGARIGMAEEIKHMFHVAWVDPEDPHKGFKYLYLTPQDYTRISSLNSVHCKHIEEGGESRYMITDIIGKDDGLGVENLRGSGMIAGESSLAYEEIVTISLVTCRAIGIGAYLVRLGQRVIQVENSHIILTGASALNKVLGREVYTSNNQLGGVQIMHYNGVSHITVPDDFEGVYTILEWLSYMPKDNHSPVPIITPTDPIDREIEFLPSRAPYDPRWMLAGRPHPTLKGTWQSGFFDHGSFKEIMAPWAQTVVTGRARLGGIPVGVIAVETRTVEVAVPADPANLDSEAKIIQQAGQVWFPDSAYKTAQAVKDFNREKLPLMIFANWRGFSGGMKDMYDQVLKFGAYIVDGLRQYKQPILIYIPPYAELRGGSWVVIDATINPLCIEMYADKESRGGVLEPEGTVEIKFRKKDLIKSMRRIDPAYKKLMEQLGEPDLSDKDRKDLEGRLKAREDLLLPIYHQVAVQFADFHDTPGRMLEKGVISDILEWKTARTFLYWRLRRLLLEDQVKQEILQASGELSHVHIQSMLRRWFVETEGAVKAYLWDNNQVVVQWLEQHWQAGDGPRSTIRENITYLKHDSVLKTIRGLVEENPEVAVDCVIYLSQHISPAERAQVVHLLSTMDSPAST

One assay concerns the target T1, recombinant human ACC2 (Homo sapiens, UniProt O00763).
T1 construct: a cDNA encoding human ACC2 (27-2458) was cloned from human kidney cDNA library (Clontech); His-tag (N); made in house; host or cells: Sf-9 insect cells (Bac-to-Bac baculovirus)
Kind of assay: Measurement of inhibitory activity on human ACC2 (MALDI-TOF MS, acetyl CoA to malonyl CoA conversion). Type of assay: biochemical.
Conditions: not given
On to `CCCc1ccc(Oc2ccc(/C=C/[C@H](C)NC(=O)CC(=O)OC(C)(C)C)cn2)c(Cl)c1` [Compound I-405], for which the IC50 – broadly, the concentration at which inhibition is half-maximal – was determined as 1200 nM.
`CC(=O)N[C@@H](C)/C=C/c1cc(Oc2ccc(OCC3CC3)cc2Cl)nn1C` [Compound I-395]: the IC50 was 4200 nM.
With `CC(C)C(F)(F)c1ccc(Oc2ccc(/C=C/[C@H](C)NC(N)=O)cn2)c(Cl)c1` [Compound I-399], the IC50 turned out to be 68 nM.
`CC(=O)N[C@@H](C)/C=C/c1ccc(Oc2ccc(C(F)(F)C(C)C)cc2Cl)nc1` [Compound I-396]: the IC50 stood at 55 nM.
The same measure, in the same setting: for `CC(=O)N[C@@H](C)/C=C/c1ccc(Oc2ccc(-c3cnccn3)cc2Cl)nc1` [Compound I-412] the value was 200 nM; for `CCCc1ccc(Oc2ccc(/C=C/[C@H](C)NC(=O)CNC(=O)OC(C)(C)C)cn2)c(Cl)c1` [Compound I-386], 400 nM.
As to `CCOc1ccc(Oc2ccc(/C=C/[C@H](C)CC(=O)NC)cn2)c(Cl)c1` [Compound I-410], the IC50 was 150 nM.
`CC(=O)N[C@@H](C)/C=C/c1cnc(Oc2ccc(OCC3CC3O)cc2Cl)nc1` (some centres unmarked) [Compound I-379]: the IC50 came out at 3700 nM.
Consider `CCOc1ccc(Oc2ncc(/C=C/[C@H](C)NC(C)=O)cc2N)c(Cl)c1` [Compound I-430], for which the 50% inhibitory concentration (IC50) worked out at 2700 nM.
For the molecule `CCCc1ccc(Oc2ccc(/C=C/[C@H](C)NC(C)=O)cn2)cc1C#N` [Compound I-404], the IC50 came to 190 nM.
On to `CC(=O)N[C@@H](C)/C=C/c1ccc(Oc2ccc(C3CCC3)cc2Cl)nc1` [Compound I-401], for which the IC50 is 56 nM.
With `CC(=O)N[C@@H](C)/C=C/c1ccc(Oc2ccc(-c3ncc(C(F)(F)F)cn3)cc2Cl)nc1` [Compound I-419], the IC50 stood at 48 nM.
For `CCCn1cc(Oc2ccc(/C=C/[C@H](C)NC(C)=O)cn2)cn1` [Compound I-388], the IC50 came out at 2000 nM.
As for `CC(=O)N[C@@H](C)/C=C/c1ccc(Oc2ccc(-c3ncccn3)cc2Cl)nc1` [Compound I-418], the IC50 is 97 nM.
Turning to `CC(=O)N[C@@H](C)/C=C/c1cnc(Oc2ccc(C(C)(C)C(F)(F)F)cc2Cl)cn1` [Compound I-428], the IC50 stood at 170 nM.
As for `CCCc1ccc(Oc2ccc(/C=C/[C@H](C)NC(=O)Cc3ccccn3)cn2)c(Cl)c1` [Compound I-422], the IC50 was 1300 nM.

Still in this assay, the particulars now being: inhibition activity on human ACC2, Table 79; read-out: IC50.
On to `CC(=O)N[C@@H](C)/C=C/c1cnc(Oc2ccc(NC(=O)OC(C)(C)C)cc2Cl)nc1` [Compound I-53], for which the IC50 stood at 940 nM.
Same read-out and setting: under `C[C@@H](/C=C/c1cnc(Oc2ccc(OCC3CC3)cc2Cl)s1)NC(=O)Cc1cccnc1` [Compound I-77] stands 48 nM; under `CCOc1ccc(OCc2ccc(/C=C/[C@H](C)NC(C)=O)cn2)c(Cl)c1` [Compound I-35], 1100 nM; under `CCOc1ccc(COc2ccc(/C=C/[C@H](C)NC(C)=O)cn2)cc1` [Compound I-15], 71 nM.
On the same count and under the same terms, for `COc1ccc(Cl)c(Oc2ccc(/C=C/[C@H](C)NC(C)=O)cn2)c1` [Compound I-27] the value was 1200 nM; for `CC(=O)N[C@@H](C)/C=C/c1cnc(Oc2ccc(NCC3CC3)cc2Cl)nc1` [Compound I-54], 430 nM.
For `CC(=O)N[C@@H](C)/C=C/c1cnc(Oc2ccc(NC(C)C)cc2Cl)nc1` [Compound I-55], the IC50 came out at 4500 nM.
Same read-out and setting: for `CC(=O)N[C@@H](C)/C=C/c1ccc(Oc2ccc(OC3CCC3)cc2Cl)nc1` [Compound I-39] the value was 11 nM; for `COc1cncc(Oc2ccc(/C=C/[C@H](C)NC(C)=O)cn2)c1` [Compound I-34], 7100 nM.
Take `CC(C)COCC(=O)N[C@@H](C)/C=C/c1cnc(Oc2ccc(OCC3CC3)cc2Cl)s1` [Compound I-103]: the IC50 worked out at 970 nM.
Still for that read-out and setting: under `CC(=O)N[C@@H](C)/C=C/c1ccc(Oc2cccc(OC(C)C)c2Cl)nc1` [Compound I-47] stands 25 nM; under `CC(=O)N[C@@H](C)/C=C/c1cnn(Cc2ccc(OCC3CC3)cc2Cl)c1` [Compound I-63], 830 nM.

The same assay, now with this note: inhibition activity on human ACC2, Table 80; read-out: IC50.
For the molecule `C[C@@H](/C=C/c1cnc(Oc2ccc(OCC3CC3)cc2Cl)s1)NC(=O)c1ccnc(C(=O)NCCN(C)C)c1` [Compound I-214], the IC50 came out at 18 nM.
On to `CCOc1ccc(Oc2ccc(/C=C/[C@H](C)Nc3cc(C)no3)cn2)c(Cl)c1` [Compound I-204], for which the IC50 stood at 38 nM.
For `CCCOc1ccc(Oc2ncc(/C=C/[C@H](C)NC(=O)C3(C#N)CC3)s2)c(Cl)c1` [Compound I-162], the IC50 worked out at 320 nM.
Consider `Cc1ccc(-c2cc(C(=O)N[C@@H](C)/C=C/c3cnc(Oc4ccc(OCC5CC5)cc4Cl)s3)ccn2)o1` [Compound I-137], for which the half-maximal inhibitory concentration (IC50) worked out at 630 nM.
With `CC(C)ONC(=O)c1cc(C(=O)N[C@@H](C)/C=C/c2cnc(Oc3ccc(OCC4CC4)cc3Cl)s2)ccn1` [Compound I-216], the IC50 worked out at 69 nM.
As to `CC(=O)c1ccc(C(=O)N[C@@H](C)/C=C/c2cnc(Oc3ccc(OCC4CC4)cc3Cl)s2)s1` [Compound I-148], the IC50 stood at 880 nM.
Take `Cc1nc(C)c(-c2cc(C(=O)N[C@@H](C)/C=C/c3cnc(Oc4ccc(OCC5CC5)cc4Cl)s3)ccn2)s1` [Compound I-138]: the IC50 is 2300 nM.
For `CCCOc1ccc(Oc2ncc(/C=C/[C@H](C)NC(=O)c3ccnc(N4CCOCC4)c3)s2)c(Cl)c1` [Compound I-165], the IC50 was 490 nM.
In the case of `COc1cc(C(=O)N[C@@H](C)/C=C/c2cnc(Oc3ccc(OCC4CC4)cc3Cl)s2)ccn1` [Compound I-157], the IC50 was 260 nM.
Turning to `C[C@@H](/C=C/c1cnn(Cc2ccc(OCC3CC3)cc2Cl)c1)NC(=O)c1ccon1` [Compound I-174], the IC50 came to 2600 nM.
On to `CCOc1ccc(C(F)(F)c2ccc(/C=C/[C@H](C)NC(N)=O)cn2)c(Cl)c1` [Compound I-188], for which the IC50 amounted to 1800 nM.
With `C[C@@H](/C=C/c1cnc(Oc2ccc(OCC3CC3)cc2Cl)s1)NC(=O)NCCC(F)(F)F` [Compound I-194], the IC50 stood at 300 nM.

The same assay, now with this note: inhibition activity on human ACC2, Table 82; read-out: IC50.
Regarding `CC(=O)N[C@@H](C)/C=C/c1ccc(Oc2ccc(C3=CCOCC3)cc2Cl)nc1` [Compound I-352], the IC50 was 240 nM.
For the molecule `CCSc1ccc(Oc2ccc(/C=C/[C@H](C)NC(C)=O)cn2)c(Cl)c1` [Compound I-360], the IC50 was 9.1 nM.
In the case of `CC(=O)N[C@@H](C)/C=C/c1ccc(Oc2ccc(C3=CCN(C)CC3)cc2Cl)nc1` [Compound I-353], the IC50 amounted to 2600 nM.
Regarding `COc1ccc(-c2ccc(Oc3ccc(/C=C/[C@H](C)NC(C)=O)cn3)c(Cl)c2)cn1` [Compound I-348], the IC50 is 210 nM.
As for `CCCc1ccc(Oc2ccc(/C=C/[C@H](C)NC(C)=O)cc2)nc1` [Compound I-368], the IC50 was determined as 110 nM.
As to `CCCc1ccc(Oc2ccc(/C=C/[C@H](C)NC(C)=O)cn2)c(C)n1` [Compound I-322], the IC50 is 490 nM.
As to `CC(=O)N[C@@H](C)/C=C/c1ccc(Oc2ccc(-c3cccnc3)cc2Cl)nc1` [Compound I-326], the half-inhibitory concentration (IC50) came out at 440 nM.

The same assay, now with this note: inhibition activity on human ACC2, Table 84; read-out: IC50.
Regarding `CC(=O)N[C@@H](C)/C=C/c1cnc(Oc2ccc(OCC3CC3)cc2Cl)c(F)c1` [Compound I-447], the IC50 is 25 nM.
With `CCCc1cc(Cl)cc(Oc2ccc(/C=C/[C@H](C)NC(C)=O)cn2)c1` [Compound I-470], the IC50 is 230 nM.
For `CC(=O)N[C@@H](C)/C=C/c1ccc(Oc2ccc(Oc3ccc(C#N)cc3)cc2Cl)nc1` [Compound I-452], the IC50 came out at 42 nM.
As for `CCOc1ccc(OCc2cccc(/C=C/[C@H](C)NC(C)=O)n2)c(Cl)c1` [Compound I-505], the IC50 worked out at 45 nM.
As for `CC(=O)N[C@@H](C)/C=C/c1ccc(Oc2ccc3c(c2Cl)CCC3)nc1` [Compound I-435], the IC50 was 24 nM.
Regarding `CC(=O)N[C@@H](C)/C=C/c1ccc(Oc2ccc3nc(C(F)(F)F)sc3c2Cl)nc1` [Compound I-491], the IC50 amounted to 5.8 nM.
Regarding `CCc1nc2cc(Cl)c(Oc3ccc(/C=C/[C@H](C)NC(C)=O)cn3)cc2s1` [Compound I-487], the IC50 is 38 nM.
For `CCCc1ccc(Oc2ccc(/C=C/[C@H](C)NC(C)=O)cn2)c(C)c1` [Compound I-437], the IC50 is 33 nM.
For the molecule `CC(=O)N[C@@H](C)/C=C/c1ccc(Oc2ccc(-c3ncc(F)cn3)cc2)nc1` [Compound I-493], the 50% inhibitory concentration (IC50) is 150 nM.
Take `CC(=O)N[C@@H](C)/C=C/c1ccc(Oc2ccc3c(c2)OCC3)nc1` [Compound I-448]: the IC50 came to 180 nM.
The same measure, in the same setting: under `CC(=O)N[C@@H](C)/C=C/c1ccc(Oc2ccc3c(c2Cl)CCC3(F)F)nc1` [Compound I-466] stands 16 nM; under `CC(=O)N[C@@H](C)/C=C/c1ccc(Oc2ccc(CC(C)(C)C)cc2Cl)cn1` [Compound I-512], 140 nM.
In the case of `CC(=O)N[C@@H](C)/C=C/c1ccc(Oc2ccc3nc(C)oc3c2)nc1` [Compound I-461], the IC50 is 1500 nM.

The same assay, now with this note: inhibition activity on human ACC2, untitled table (Table 81); read-out: IC50.
Turning to `CC(=O)NC(C)(C)/C(C)=C/c1ccc(Oc2ccc(OCC3CC3)cc2Cl)nc1` [Compound I-290], the concentration for half-maximal inhibition (IC50) came to 600 nM.
The same measure, in the same setting: for `CC(=O)N[C@@H](C)/C=C/c1cnn(Cc2cc(F)c(OCC3CC3)c(Cl)c2)c1` [Compound I-265] the value was 1100 nM.
For the molecule `CC(=O)N[C@@H](C)/C=C/c1ccc(Oc2ccc(NC(=O)CCCCl)cc2Cl)nc1` [Compound I-256], the IC50 is 50 nM.
For the molecule `CC(=O)N[C@@H](C)/C=C/c1cnc(Oc2ccc(NC(=O)CC(C)C)c(Cl)c2)nc1` [Compound I-284], the IC50 worked out at 860 nM.
In the case of `CC(=O)N[C@@H](C)/C=C/c1cnc(Oc2ccc(NC3CCCC3)c(Cl)c2)nc1` [Compound I-285], the IC50 amounted to 96 nM.
Take `CC#Cc1ccc(Oc2ccc(/C=C/[C@H](C)NC(C)=O)cn2)c(Cl)c1` [Compound I-275]: the IC50 turned out to be 17 nM.
Still for that read-out and setting: under `CCCc1ccc(Oc2ccc(/C=C/[C@H](C)NC(C)=O)cn2)cc1Cl` [Compound I-305] stands 11 nM; under `CCCc1cncc(Oc2ccc(/C=C/[C@H](C)NC(C)=O)cn2)c1` [Compound I-302], 510 nM.
